Structures can show the parent of a compound that is named as a salt.
melting point: 201 to 204 °C (dec.)
SMILES: COc1cccc2sc(C3=CC4CCC(C3)N4C[C@H](O)COc3cccc4occc34)cc12 (stereo partly shown) (as salt: oxalate)
